The results in this text go back to patent publication US7902223B2, “Phenyl derivatives as factor XA inhibitors” (Merck Patent GmbH, priority 2001, dated 2011).

pIC50: −log10 of the molar value.

The target of one test is FXa (Homo sapiens, UniProt P00742). Briefly: Factor Xa inhibition (FXa-IC50). The class given is biochemical. From the text:
The inhibition of factor Xa by the compounds according to the invention and the measurement of the anticoagulant and antithrombotic activity can be determined by conventional in-vitro or in-vivo methods. A suitable method is described, for example, by J. Hauptmann et al. in Thrombosis and Haemostasis 1990, 63, 220-223.
The inhibition of factor Xa can be measured, for example, by the method of T. Hara et al. in Thromb. Haemostas. 1994, 71, 314-319.

Another test has as its target TF/FVIIa (Homo sapiens, UniProt P08709). Briefly: TF/factor VIIa inhibition (TF/FVIIa-IC50). The class given is biochemical. The text has this: The inhibition of factor VIIa by the compounds according to the invention and the measurement of the anticoagulant and antithrombotic activity can be determined by conventional in-vitro or in-vivo methods. A conventional method for the measurement of the inhibition of factor VIIa is described, for example, by H. F. Ronning et al. in Thrombosis Research 1996, 84, 73-81.

Sequence of TF/FVIIa (P08709 213-466 limits assumed): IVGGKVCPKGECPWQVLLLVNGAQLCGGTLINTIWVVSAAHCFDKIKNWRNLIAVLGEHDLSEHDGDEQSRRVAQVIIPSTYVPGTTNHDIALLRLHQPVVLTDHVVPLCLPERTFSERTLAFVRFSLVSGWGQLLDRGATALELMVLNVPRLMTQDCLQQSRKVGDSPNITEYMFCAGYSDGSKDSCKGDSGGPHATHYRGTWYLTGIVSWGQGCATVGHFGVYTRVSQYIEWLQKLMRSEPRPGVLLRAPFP
Sequence of TF/FVIIa (P08709 61-212 limits assumed): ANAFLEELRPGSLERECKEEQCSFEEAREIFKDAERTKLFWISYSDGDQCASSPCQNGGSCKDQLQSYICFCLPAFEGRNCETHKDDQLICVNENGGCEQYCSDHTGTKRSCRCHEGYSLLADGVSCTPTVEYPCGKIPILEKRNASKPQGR
Sequence of TF/FVIIa (P13726 33-295 partner): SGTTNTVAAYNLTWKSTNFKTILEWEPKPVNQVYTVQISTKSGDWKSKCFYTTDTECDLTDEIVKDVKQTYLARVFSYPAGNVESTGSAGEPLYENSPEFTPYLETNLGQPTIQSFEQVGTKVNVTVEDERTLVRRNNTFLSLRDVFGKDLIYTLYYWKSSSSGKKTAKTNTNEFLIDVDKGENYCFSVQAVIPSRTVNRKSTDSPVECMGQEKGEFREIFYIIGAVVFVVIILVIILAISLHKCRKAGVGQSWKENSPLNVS
Sequence of FXa (P00742 235-488 limits assumed): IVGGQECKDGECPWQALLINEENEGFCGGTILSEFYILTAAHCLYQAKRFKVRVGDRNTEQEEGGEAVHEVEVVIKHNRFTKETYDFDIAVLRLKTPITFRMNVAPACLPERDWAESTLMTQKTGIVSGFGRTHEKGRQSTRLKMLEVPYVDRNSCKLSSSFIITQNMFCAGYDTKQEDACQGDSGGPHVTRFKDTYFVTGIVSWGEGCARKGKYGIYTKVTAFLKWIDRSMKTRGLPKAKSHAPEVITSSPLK
Sequence of FXa (P00742 41-179 limits assumed): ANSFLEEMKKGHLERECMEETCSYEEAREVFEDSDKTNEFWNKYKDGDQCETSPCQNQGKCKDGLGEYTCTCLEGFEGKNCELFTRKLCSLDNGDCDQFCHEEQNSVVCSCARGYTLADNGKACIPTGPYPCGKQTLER

Take `CCCC(Oc1ccc2ccnc(N)c2c1)C(=O)Nc1ccc(N2CCCCC2=O)cc1` (stereo not shown) [AA, N-[4-(2-Oxopiperidin-1-yl)phenyl]-2-(1-aminoisoquinolin-7-yloxy)-pentanamide]: the pIC50 at FXa is 6.46; against TF/FVIIa, 6.66.

Consider `Nc1nccc2ccc(OC(C(=O)Nc3ccc(N4CCCCC4=O)cc3)c3ccccc3)cc12` (stereo not shown) [AB, N-[4-(2-oxopiperidin-1-yl)phenyl]-2-(1-aminoisoquinolin-7-yloxy)-2-phenylacetamide], for which the pIC50 was 6.46 on FXa and 6.70 at TF/FVIIa.
